“Also recorded” adds a separate entry of the source.
Target: protein kinase
Test: HTS ATP-utilizing enzyme assay, off-chip mobility-shift format (Caliper HTS 250)
Type: biochemical, human
Details: test compound 10 μM; for Kinase: kinase(s) for which the compound exhibits protein kinase inhibitory activity, active = greater than three-sigma from the mean activity of inactive compounds; for protein kinase against which the compound exhibits inhibitory activity (Table 3): active = activity greater than three-sigma from the mean of the predominately inactive population for that enzyme
Outline: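 Single-point screen at 10 μM compound in HEPES pH 7.5 buffer with Triton X-100 and BSA, 2.5 h at 20–22 °C. Substrate-to-phosphopeptide ratio measured by off-chip microfluidic mobility shift; EDTA wells as 100% and DMSO wells as 0% control, hits called at three-sigma limits.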

Row | Compound | Kinase | protein kinase against which the compound exhibits inhibitory activity (Table 3)
1 | O=C(CSc1nnc(CNc2ccc(F)cc2)n1CC1CCCO1)N1CCCc2ccccc21 (centres unmarked) | AKT1 | –
2 | O=C(O)CSc1nnc(-c2ccc(O)cc2)n1Cc1ccco1 | GSK3-β; also recorded: GSK3-α | –
3 | Oc1ccc(-c2nnc(SCc3ccccc3)n2Cc2ccco2)cc1 [4-(5-(benzylthio)-4-(furan-2-ylmethyl)-4H-1,2,4-triazol-3-yl)phenol] | – | GSK3-β and GSK3-α and MSK2
4 | O=C(CSc1nnc(-c2ccc([N+](=O)[O-])cc2)[nH]1)c1ccccc1 [2-(5-(4-nitrophenyl)-4H-1,2,4-triazol-3-ylthio)-1-phenylethanone] | FLT-3; also recorded: GSK3-β; also recorded: AURORA-A | –
5 | CCOC(=O)c1ccc(CSc2nnc(-c3cccc(C)c3)[nH]2)o1 [ethyl 5-((5-m-tolyl-4H-1,2,4-triazol-3-ylthio)methyl)furan-2-carboxylate] | – | AURORA-A; also recorded: FLT-3; also recorded: CHEK2
6 | C=CCn1c(SCC(=O)NCCCN2CCOCC2)nnc1-c1sc2ccccc2c1Cl | LYNA | –
7 | O=C(O)CCSc1nnc(-c2cccnc2)n1-c1ccccc1 [3-(4-phenyl-5-(pyridin-3-yl)-4H-1,2,4-triazol-3-ylthio)propanoic acid] | – | AURORA-A
8 | O=C(O)CSc1nnc(-c2cccnc2)n1Cc1ccco1 [2-(4-(furan-2-ylmethyl)-5-(pyridin-3-yl)-4H-1,2,4-triazol-3-ylthio)acetic acid] | DAPK1; also recorded: GSK3-β; also recorded: AURORA-A | –
9 | COc1ccc(-n2c(SCC#N)nnc2-c2ccc(NS(=O)(=O)c3ccc(C)cc3)cc2)cc1 | CDK2-cyclinA and CDK1 and CDK2-cyclinE | –
10 | N#CCSc1nnc(-c2cccs2)[nH]1 [2-(5-(thiophen-2-yl)-4H-1,2,4-triazol-3-ylthio)acetonitrile] | DYRK2; also recorded: FLT-3; also recorded: AURORA-A | –
11 | CCOC(=O)CCCSc1nnc(-c2ccc3[nH]c(C)c(C)c3c2)n1CC | – | FLT-3
12 | CCn1c(SCC(=O)Nc2sc(C)c(C)c2C#N)nnc1-c1ccc(S(=O)(=O)N2CCOCC2)cc1 | DAPK1 | –
13 | COc1ccc(-c2nnc(SCC(=O)OC3CCCCCC3)n2-c2cccc(C(F)(F)F)c2)cc1 | FLT-3 | –
14 | CCc1nnc(SCc2ccccc2)n1Cc1ccc2c(c1)OCO2 [4-(benzo[d][1,3]dioxol-5-ylmethyl)-3-(benzylthio)-5-ethyl-4H-1,2,4-triazole] | – | GSK3-β; also recorded: GSK3-α
15 | FC(F)(F)c1cccc(-c2nnc(SCCc3ccccc3)[nH]2)c1 [3-(phenethylthio)-5-(3-(trifluoromethyl)phenyl)-4H-1,2,4-triazole] | – | AURORA-A; also recorded: GSK3-α
16 | CCn1c(SCc2ccccc2Cl)nnc1-c1cc(-c2ccccc2)nc2ccccc12 [4-(5-(2-chlorobenzylthio)-4-ethyl-4H-1,2,4-triazol-3-yl)-2-phenylquinoline] | – | CHEK2

Now from value to molecule:

Row | Kinase | protein kinase against which the compound exhibits inhibitory activity (Table 3) | Compound
17 | PDK1 | – | COc1ccc(-c2nnc(SCC(N)=O)n2-c2ccccc2)cc1 [2-(5-(4-methoxyphenyl)-4-phenyl-4H-1,2,4-triazol-3-ylthio)acetamide]
18 | – | KIT and AURORA-A | COc1ccccc1-n1c(SCC(=O)Nc2ccc(Cl)cc2)nnc1-c1ccccc1O
19 | PRAK and CHEK2 and PKA | – | COc1ccc(-c2nnc(SCC(=O)Nc3cccc(NC(=O)C4CCCO4)c3)n2-c2ccccc2)cc1 (centres unmarked)
20 | GSK3-β; also recorded: GSK3-α | – | Cn1c(SCC(=O)Nc2nccs2)nnc1-c1cc2ccccc2cc1O
21 | – | AURORA-A | COc1ccccc1-n1c(SCCC(=O)O)nnc1-c1cccnc1
22 | – | CDK2-cyclinE | CCn1c(COc2ccccc2OC)nnc1SCc1ccc(Cl)cc1
23 | – | CDK2-cyclinA and PRAK | COc1ccccc1-n1c(SCc2ccccc2Cl)nnc1-c1ccccc1O [2-(5-(2-chlorobenzylthio)-4-(2-methoxyphenyl)-4H-1,2,4-triazol-3-yl)phenol]
